Here are results for 29 compounds from patent US20230295166A1, “ATR INHIBITORS AND USES THEREOF” (ANTENGENE DISCOVERY LIMITED, priority 2020, published 2023).

The subject of this assay is LoVo (CCL-229) cells. Kind of assay: Tumor cell anti-proliferation assay (CTG assay). Type of assay: cell-based. As to conditions: LoVo human colorectal cancer cells, 96 h, CellTiter-Glo. On the procedure:
Assay 2: Tumor Cell Anti-proliferation Assay (CTG Assay)
Human colorectal cancer cells HT-29 (HTB-38) and LoVo (CCL-229) were selected for the CTG assay, the two cell lines were originally obtained from the American Type Culture Collection (ATCC). FBS and appropriate additives were added into base medium to prepare complete medium, then the cell layer was briefly rinsed with 0.25% (w/v) Trypsin-0.038% (w/v) EDTA solution to remove all traces of serum that contains trypsin inhibitor. After that, appropriate volume of Trypsin-EDTA solution was added to flask and cells under an inverted microscope were observed until cell layer was dispersed. At last, appropriate volume of complete growth medium was added and cells were aspirated by gently pipetting. Numbers were collected and counted with Vi-cell XR and cell density was adjusted, cells were seeded into 96-well opaque-walled clear bottom tissue-culture treated plates in the CO2 incubator for 20-24 hours. All the test compounds were at 10 mM in DMSO. Compounds were then added to the cell media in 3-fold serial dilutions, the final DMSO concentration was 0.5%. Plates were incubated for 96 h at 5% CO2, 37° C. Before the measurement, the appropriate volume of CellTiter-Glo Buffer was transferred into the amber bottle containing CellTiter-Glo substrate to reconstitute the lyophilized enzyme/substrate mixture, mixed gently, thereby forming the CellTiter-Glo Reagent (Promega Cat. No. G7573). The plate and its contents were equilibrated to room temperature for approximately 30 minutes, then 100 μL of CellTiter-Glo Reagent was added to the assay plate, the contents were mixed for 2 minutes on an orbital shaker to induce cell lysis, incubated at room temperature for 10 minutes to stabilize luminescent signal. At last the clear bottom was pasted with white back seal and luminescence was recorded with Enspire. IC50 and GI50 values were calculated with XLFit curve fitting software using 4 Parameter Logistic Model Y=Bottom+(Top−Bottom)/(1+(IC50/X)^HillSlope).
A general note: In ATP-based viability assays light output follows the ATP content of the culture.

In general, IC50 refers to the concentration that inhibits the measured activity by half. Read a high IC50 as a need for much substance. As to `Cc1cc(-c2cnc3c(-c4ccnn4C)cc(N4CCOC[C@H]4C)nn23)[nH]n1` [Example 23, (R)-3-methyl-4-(8-(1-methyl-1H-pyrazol-5-yl)-3-(3-methyl-1H-pyrazol-5-yl)imidazo[1,2-b]pyridazin-6-yl)morpholine], half-maximal inhibition (IC50) was put at 0.446 µM.
The value for `C[C@@H]1COCCN1c1cc(-c2ccnn2C)n2ccc(-c3ccn[nH]3)c2n1` [Example 28, (R)-3-methyl-4-(4-(1-methyl-1H-pyrazol-5-yl)-8-(1H-pyrazol-5-yl)pyrrolo[1,2-a]pyrimidin-2-yl)morpholine] was 0.471 µM.
Under `Cc1cc(-c2ncc3c(-c4c(C)nnn4C)cc(N4CCOC[C@H]4C)nn23)[nH]n1` [Example 35, (3R)-4-(4-(1,4-dimethyl-1H-1,2,3-triazol-5-yl)-7-(3-methyl-1H-pyrazol-5-yl)imidazo[1,5-b]pyridazin-2-yl)-3-methylmorpholine] stands 0.129 µM; under `Cc1nc(-c2ccn[nH]2)n2nc(N3CCOC[C@H]3C)cc(-c3ccnn3C)c12` [Example 36, (R)-3-methyl-4-(5-methyl-4-(1-methyl-1H-pyrazol-5-yl)-7-(1H-pyrazol-5-yl)imidazo[1,5-b]pyridazin-2-yl)morpholine], 0.0178 µM; under `Cc1cc(-c2nsc3c(-c4ccnn4C)cc(N4CCOC[C@H]4C)nc23)[nH]n1` [Example 37, (R)-3-methyl-4-(7-(1-methyl-1H-pyrazol-5-yl)-3-(3-methyl-1H-pyrazol-5-yl)isothiazolo[4,5-b]pyridin-5-yl)morpholine], 0.0366 µM.
Under `Cc1nnn(C)c1-c1cc(N2CCOC[C@H]2C)nc2c(-c3ccn[nH]3)nsc12` [Example 38, (R)-4-(7-(1,4-dimethyl-1H-1,2,3-triazol-5-yl)-3-(1H-pyrazol-5-yl)isothiazolo[4,5-b]pyridin-5-yl)-3-methylmorpholine] stands 0.0404 µM; under `C[C@@H]1COCCN1c1cc(C(C)(C)C#N)c2cnc(-c3ccn[nH]3)n2n1` [Example 40, (R)-2-methyl-2-(2-(3-methylmorpholino)-7-(1H-pyrazol-5-yl)imidazo[1,5-b]pyridazin-4-yl)propanenitrile], 0.0238 µM; under `C[C@@H]1COCCN1c1cc(C(C)(C)S(C)(=O)=O)c2cnc(-c3ccn[nH]3)n2n1` [Example 41, (3R)-4-[4-(2-methanesulfonylpropan-2-yl)-7-(1H-pyrazol-5-yl)imidazo[1,5-b]pyridazin-2-yl]-3-methylmorpholine], 0.0866 µM.
With `Cc1cc(-c2ncc3c(C(C)(C)S(C)(=O)=O)cc(N4CCOC[C@H]4C)nn23)[nH]n1` [Example 42, (R)-3-methyl-4-(7-(3-methyl-1H-pyrazol-5-yl)-4-(2-(methylsulfonyl)propan-2-yl)imidazo[1,5-b]pyridazin-2-yl)morpholine], the IC50 was 0.0793 µM.
Under `C[C@@H]1COCCN1c1cc(C2(C#N)CC2)c2cnc(-c3ccn[nH]3)n2n1` [Example 44, (R)-1-(2-(3-methylmorpholino)-7-(1H-pyrazol-5-yl)imidazo[1,5-b]pyridazin-4-yl)cyclopropane-1-carbonitrile] stands 0.0439 µM; under `Cc1nnn(C)c1-c1cc(N2CCOC[C@H]2C)nn2c(-c3ccn[nH]3)nc(C)c12` [Example 45, (3R)-4-[4-(dimethyl-1H-1,2,3-triazol-5-yl)-5-methyl-7-(1H-pyrazol-5-yl)imidazo[1,5-b]pyridazin-2-yl]-3-methylmorpholine], 0.0817 µM; under `Cc1cc(-c2nc(C)c3c(-c4c(C)nnn4C)cc(N4CCOC[C@H]4C)nn23)[nH]n1` [Example 46, (3R)-4-[4-(dimethyl-1H-1,2,3-triazol-5-yl)-5-methyl-7-(3-methyl-1H-pyrazol-5-yl)imidazo[1,5-b]pyridazin-2-yl]-3-methylmorpholine], 0.0512 µM.
The value for `Cc1cc(-c2nc(C)c3c(-c4ccnn4C)cc(N4CCOC[C@H]4C)nn23)[nH]n1` [Example 47, (R)-3-methyl-4-(5-methyl-4-(1-methyl-1H-pyrazol-5-yl)-7-(3-methyl-1H-pyrazol-5-yl)imidazo[1,5-b]pyridazin-2-yl)morpholine] was 0.0171 µM; that for `C[C@@H]1COCCN1c1cc(C2(S(C)(=O)=O)CC2)c2snc(-c3ccn[nH]3)c2n1` [Example 49, (R)-3-methyl-4-(7-(1-(methylsulfonyl)cyclopropyl)-3-(1H-pyrazol-5-yl)isothiazolo[4,5-b]pyridin-5-yl)morpholine] was 0.0161 µM; that for `Cc1cc(-c2nsc3c(C(C)(C)C#N)cc(N4CCOC[C@H]4C)nc23)[nH]n1` [Example 54, (R)-2-methyl-2-(3-(3-methyl-1H-pyrazol-5-yl)-5-(3-methylmorpholino)isothiazolo[4,5-b]pyridin-7-yl)propanenitrile] was 0.0667 µM.
The value for `C[C@@H]1COCCN1c1cc(C2(C#N)CCCC2)c2cnc(-c3ccn[nH]3)n2n1` [Example 59, 1-{2-[(3R)-3-methylmorpholin-4-yl]-7-(1H-pyrazol-5-yl)imidazo[1,5-b]pyridazin-4-yl}cyclopentane-1-carbonitrile] was 0.0281 µM; that for `C[C@@H]1COCCN1c1cc(-c2ccnn2C)c2c(Cl)nc(-c3ccn[nH]3)n2n1` [Example 61, (3R)-4-[5-chloro-4-(1-methyl-1H-pyrazol-5-yl)-7-(1H-pyrazol-5-yl)imidazo[1,5-b]pyridazin-2-yl]-3-methylmorpholine] was 0.0265 µM.
In turn, `Cc1nc(-c2ccn[nH]2)n2nc(N3CC4CCC(C3)O4)cc(-c3ccnn3C)c12` [Example 65, 3-[5-methyl-4-(1-methyl-1H-pyrazol-5-yl)-7-(1H-pyrazol-5-yl)imidazo [1,5-b]pyridazin-2-yl]-8-oxa-3-azabicyclo[3.2.1]octane] registered an IC50 of 0.0552 µM.
`Cc1cc(-c2nc(C)c3c(-c4ccnn4C)cc(N4CC5CCC(C4)O5)nn23)[nH]n1` [Example 66, 3-[5-methyl-4-(1-methyl-1H-pyrazol-5-yl)-7-(3-methyl-1H-pyrazol-5-yl)imidazo[1,5-b]pyridazin-2-yl]-8-oxa-3-azabicyclo[3.2.1]octane]: the IC50 stood at 0.069 µM.
The value for `Cc1cc(-c2nsc3c(C(C)(C)O)cc(N4CCOC[C@H]4C)nc23)[nH]n1` [Example 67, (R)-2-(3-(3-methyl-1H-pyrazol-5-yl)-5-(3-methylmorpholino)isothiazolo[4,5-b]pyridin-7-yl)propan-2-ol] was 0.005 µM; that for `Cc1cc(-c2nsc3c(-c4cnnn4C)cc(N4CCOC[C@H]4C)nc23)[nH]n1` [Example 68, (R)-3-methyl-4-(7-(1-methyl-1H-1,2,3-triazol-5-yl)-3-(3-methyl-1H-pyrazol-5-yl)isothiazolo[4,5-b]pyridin-5-yl)morpholine] was 0.016 µM.
The value for `C[C@@H]1COCCN1c1cc(-c2cnnn2C)c2snc(-c3ccn[nH]3)c2n1` [Example 69, (R)-3-methyl-4-(7-(1-methyl-1H-1,2,3-triazol-5-yl)-3-(1H-pyrazol-5-yl)isothiazolo[4,5-b]pyridin-5-yl)morpholine] was 0.015 µM; that for `Cc1cnn(C)c1-c1cc(N2CCOC[C@H]2C)nc2c(-c3ccn[nH]3)nsc12` [Example 70, (R)-4-(7-(1,4-dimethyl-1H-pyrazol-5-yl)-3-(1H-pyrazol-5-yl)isothiazolo[4,5-b]pyridin-5-yl)-3-methylmorpholine] was 0.018 µM.
Under `Cc1cc(-c2nsc3c(-c4c(C)cnn4C)cc(N4CCOC[C@H]4C)nc23)[nH]n1` [Example 71, (R)-4-(7-(1,4-dimethyl-1H-pyrazol-5-yl)-3-(3-methyl-1H-pyrazol-5-yl)isothiazolo[4,5-b]pyridin-5-yl)-3-methylmorpholine] stands 0.023 µM; under `Cc1noc(C)c1-c1cc(N2CCOC[C@H]2C)nc2c(-c3ccn[nH]3)nsc12` [Example 72, (R)-4-(7-(3,5-dimethylisoxazol-4-yl)-3-(1H-pyrazol-5-yl)isothiazolo[4,5-b]pyridin-5-yl)-3-methylmorpholine], 0.101 µM; under `Cc1cc(-c2nsc3c(-c4c(C)noc4C)cc(N4CCOC[C@H]4C)nc23)[nH]n1` [Example 73, (R)-4-(7-(3,5-dimethylisoxazol-4-yl)-3-(3-methyl-1H-pyrazol-5-yl)isothiazolo[4,5-b]pyridin-5-yl)-3-methylmorpholine], 0.041 µM.
Consider `C[C@@H]1COCCN1c1cc(C2(S(C)(=O)=O)CC2)nc(Nc2cc(Cl)n[nH]2)n1` [Example 77, (R)—N-(3-chloro-1H-pyrazol-5-yl)-4-(3-methylmorpholino)-6-(1-(methylsulfonyl)cyclopropyl)pyrimidin-2-amine], for which the IC50 was found to be 1 µM.
Under `Cn1nccc1-c1cc(N2CC3CCC(C2)O3)nn2c(-c3ccn[nH]3)ncc12` [Example 78, 3-[4-(1-methyl-1H-pyrazol-5-yl)-7-(1H-pyrazol-5-yl)imidazo[1,5-b]pyridazin-2-yl]-8-oxa-3-azabicyclo[3.2.1]octane] stands 0.152 µM.
Under `Cc1cc(-c2ncc3c(-c4ccnn4C)cc(N4CC5CCC(C4)O5)nn23)[nH]n1` [Example 79, 3-[4-(1-methyl-1H-pyrazol-5-yl)-7-(3-methyl-1H-pyrazol-5-yl)imidazo[1,5-b]pyridazin-2-yl]-8-oxa-3-azabicyclo[3.2.1]octane] stands 0.246 µM.
